12 molecules from patent US6789546B2, “Filters for preventing or reducing tobacco smoke-associated injury in the aerodigestive tract of a subject” (Technion Research & Development Foundation Ltd., priority 2001, dated 2004) can be followed below.

Molecules are shown by their SMILES.

Data set [1] relates to oral peroxidase (OPO). The format is biochemical, human. To be noted: for OPO activity in the presence of aldehydes: 2 mM acetylaldehyde, 80 μM acrolein, 20 μM crotonaldehyde, TS-treated saliva.
Data set [2] deals with oral peroxidase (OPO). The experiment in a line: OPO activity in saliva exposed in vitro to tobacco smoke (NBS-SCN assay). The class given is biochemical, human.
In data set [3] the test system is lymphocytes. The data set can be described thus: Western immunoblotting analysis of lymphocyte protein carbonylation. The format is cell-based, human. The source says:
Western Immunoblotting Analysis of Protein Carbonylation: Salivary proteins were separated by SDS-PAGE using a 10% gel and electro-blotted onto nitrocellulose membranes, as previously described (14). The Oxyblot Kit (Intergen Co, Purchase N.Y.) was used with anti-dinitrophenyhydrazine (DNPH) antibodies to label carbonylated proteins. Protein carbonylation levels were then visualized by reacting labelled blots with a secondary HRP-conjugated anti-rabbit antibody followed by ECL detection of secondarily labelled proteins, as previously described (14).
(§1) Lymphocyte Isolation: Blood from 10 consenting, healthy, non-smoking subjects, 5 males and 5 females ranging from 18-55 years of age, was drawn into EDTA-containing vacutainers. Lymphocytes were isolated by Ficoll-Hypaque (Sigma) gradient centrifugation according to the manufacturer's instructions and lymphocytes were suspended at 10^7 cells/ml PBS (Beit-Ha'emek Industries, Israel), and used immediately in experiments.
Treatment of Lymphocytes With TS in the Presence of Saliva: Exposure of lymphocytes to TS was carried out by attaching a Time cigarette (capable of removing particles>[…] in diameter) in which the filter tip was removed to a Cambridge filter which was combined with a vacuum system to aspirate gas-phase TS inside sealed 250 ml flasks containing lymphocytes suspended in 12-15 ml PBS, as previously described (14, 15). A reproducible vacuum was created in the flask and upon application of vacuum for 5 s, 80-100 ml of TS from the lit cigarette was drawn into the flask. […] Saliva treatment of lymphocytes was performed by suspending these in PBS supplemented with 30% (v/v) saliva. Following treatment with the TS of 0.5 cigarettes, flasks were incubated at 37° C. for 20 min in a metabolic shaker and subjected to a further 4 treatments with TS, as described above.
Western Immunoblotting Analysis of Lymphocyte Protein Carbonylation: Lymphocytes were washed twice in PBS following treatment by centrifugation at 2,000 rpm for 2 minutes to remove saliva and other components of the incubation medium. Lymphocytes were then centrifuged at 14,000 rpm for 1 minute and lysed by sonication for 10 seconds in lysis buffer containing 20 mM Tris pH 7.4, 1 mM EGTA, 1 mM PMSF, 50 μM NaVO4 and 50 mM NaF. Lysates were centrifuged at 14,000 rpm for 1 minute and supernatants were harvested for analysis. Carbonylation analysis was performed as described above.
Background: Immunoblotting shows a protein as a band on a membrane.

Data set [4] has as its system lymphocytes. The experiment in a line: Lymphocyte survival by Trypan Blue exclusion assay. The class given is cell-based, human. The protocol: Saliva Collection: Saliva was collected from healthy subjects, 3 males and 3 females ranging from 21-47 years of age, under non-stimulatory conditions in a quiet room during the morning between 8 am and noon. Saliva collection was performed at least 1 h after eating by spitting into a recipient for 10 minutes, as previously described (43). Following collection, saliva was immediately centrifuged at 800×g for 10 min at 4° C. to remove cells and cell debris and the resulting supernatant was used for biochemical analyses.
as §1
A reproducible vacuum was created in the flask and upon application of vacuum for 5 s, 80-100 ml of TS from the lit cigarette was drawn into the flask. […] Saliva treatment of lymphocytes was performed by suspending these in PBS supplemented with 30% (v/v) saliva. Following treatment with the TS of 0.5 cigarettes, flasks were incubated at 37° C. for 20 min in a metabolic shaker and subjected to a further 4 treatments with TS, as described above.
Measurement of Lymphocyte Survival: Lymphocyte viability was assessed by Trypan Blue exclusion assay.

The target of another data set is T1, MPO (Homo sapiens, UniProt P05164).
T1 construct: purchased
T1 sequence (P05164 49-745): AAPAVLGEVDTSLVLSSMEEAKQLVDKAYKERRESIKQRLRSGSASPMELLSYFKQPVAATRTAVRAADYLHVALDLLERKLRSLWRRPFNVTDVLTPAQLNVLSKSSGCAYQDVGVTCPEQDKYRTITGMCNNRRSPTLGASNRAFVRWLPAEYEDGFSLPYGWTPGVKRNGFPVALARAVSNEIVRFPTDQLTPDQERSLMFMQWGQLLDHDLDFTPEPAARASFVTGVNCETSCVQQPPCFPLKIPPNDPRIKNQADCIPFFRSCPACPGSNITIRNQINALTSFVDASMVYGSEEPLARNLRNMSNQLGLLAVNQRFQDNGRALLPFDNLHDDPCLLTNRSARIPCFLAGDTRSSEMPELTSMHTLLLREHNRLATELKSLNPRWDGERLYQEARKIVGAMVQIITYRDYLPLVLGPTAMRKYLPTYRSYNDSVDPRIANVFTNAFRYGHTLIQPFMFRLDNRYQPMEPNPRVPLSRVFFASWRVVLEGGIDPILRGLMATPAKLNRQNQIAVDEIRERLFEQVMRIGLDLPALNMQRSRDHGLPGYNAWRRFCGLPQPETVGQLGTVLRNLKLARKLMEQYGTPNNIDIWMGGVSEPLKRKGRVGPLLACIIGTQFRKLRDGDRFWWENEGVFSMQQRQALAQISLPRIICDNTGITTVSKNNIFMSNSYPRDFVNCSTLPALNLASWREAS
The data set can be described thus: Control MPO activity (commercial MPO) in the presence of dapsone. The class given is biochemical. To be noted: 150 μM dapsone. On the procedure: FIG. 7 is a data plot depicting the effect of increasing concentrations of dapsone (4-aminophenylsulfone) on OPO activity in TS-treated saliva. Abbreviations: NO.1, NO.2, NO.3, NO4 and NO.5 correspond to saliva from 5 different subjects and plasma corresponds to commercial MPO.
Analysis of OPO Activity: OPO activity was measured according to the 2-nitrobenzoic-thiocyanate (NBS-SCN) assay, as previously described (20). Briefly, DTNB is reduced to NBS by addition of β-mercaptoethanol and decreases in NBS concentration by reaction with OSCN^−, a product of OPO, are monitored spectrophotometrically by measuring absorbance at 412 nm at pH 5.6 (18). One unit of enzyme activity was defined as the activity required to cleave 1 μmol of NBS/min at 22° C., using a molar extinction coefficient of 12,800 (20).
Thus, in order to determine which of the MPO or SPO activity components of OPO activity are lost as a result of exposure to TS, OPO activity in TS-treated saliva was measured in the presence of increasing concentrations of 50-150 μM dapsone.

The mark [5] stands for this setting: lymphocytes in PBS, 20 minutes, 80 μM acrolein, 20 μM crotonaldehyde or 2 mM acetaldehyde.

As to `[Cl][Fe]([Cl])[Cl]` [FeCl3], the “inhibition of OPO activity” value with oral peroxidase (OPO) [1] (saliva exposed 2 h to 1 mM ascorbate or 100 μM FeCl3) is on record as “did not inhibit OPO activity”.
Turning to `N[C@@H](CCC(=O)N[C@@H](CS)C(=O)NCC(=O)O)C(=O)O` [GSH, L-γ-glutamyl-1-cysteine-glycine], the “loss of OPO activity in TS-treated saliva in the presence or absence of the agent” value in the data set with oral peroxidase (OPO) [2] (1 mM agent) is on record as “similar”. In the data set with lymphocytes [3] (TS and saliva, 20 minutes, 1 mM agent (FIG. 20)), the “protection assessed by lymphocyte protein carbonylation levels” value was “unique protection”. The “protection from aldehyde-induced protein carbonylation” value in the data set with lymphocytes [3] (aldehydes + 1 mM GSH, 20 min (FIG. 21)) is “protection provided by GSH was similar”. Also, the “effect on death rate of lymphocytes exposed to TS and saliva” value with lymphocytes [4] was “partially prevented”.
Turning to `N#C[S-].[K+]` [KSCN, potassium thiocyanate], the “protection against TS-induced loss of OPO activity” value in the data set on oral peroxidase (OPO) [2] was “significant protection against loss of OPO activity”.
As for `CC(=O)N[C@@H](CS)C(=O)O` [NAC, N-acetylcysteine], the “effect on death rate of lymphocytes exposed to TS and saliva” value in the data set on lymphocytes [4] is given as “did not alter the death rate”.
As for `C/C1=C2/[N-][C@H]([C@H](CC(N)=O)[C@@]2(C)CCC(=O)NC[C@@H](C)OP(=O)([O-])O[C@H]2[C@@H](O)[C@@H](n3cnc4cc(C)c(C)cc43)O[C@@H]2CO)[C@]2(C)N=C(/C(C)=C3N=C(/C=C4N=C1[C@@H](CCC(N)=O)C\4(C)C)[C@@H](CCC(N)=O)[C@]\3(C)CC(N)=O)[C@@H](CCC(N)=O)[C@]2(C)CC(N)=O.[Co+3].[OH-]` [OH—CO, hydroxocobalamin], in the data set on oral peroxidase (OPO) [2] (increasing amounts of OH—CO (0.5, 1, 2 mM, FIG. 14), 40 min after treatment with TS), the “prevention of loss of OPO activity in saliva” value was “prevent, to a significant extent”. The “prevention of loss of OPO activity by preincubation” value with oral peroxidase (OPO) [2] (preincubation of saliva with OH—CO, TS or KCN) was “could prevent both TS- and KCN-associated loss of OPO activity”. The “prevention of KCN-associated loss of OPO activity” value with oral peroxidase (OPO) [1] (1 mM OH—CO, saliva treated 2 min with 1 mM KCN) is “completely prevent”.
`CC=O` [acetaldehyde] returned a death rates with lymphocytes [4] (both, human) of 92.7%. The “OPO activity in the presence of aldehydes” value (from here on “OPO activity … of aldehydes”) in the data set with oral peroxidase (OPO) [1] is “unaffected”.
As for `C=CC=O` [acrolein], in the data set on lymphocytes [3] (acrolein with saliva versus acrolein alone (FIG. 22: 80 μM, 20 min)), the “lymphocyte protein carbonylation levels” value is “did not enhance carbonylation levels”. The survival rates in the data set with lymphocytes [4] (acrolein, first value of 'respectively' (taken as without saliva), time not given) was 57.9%; in the data set on lymphocytes [4] (acrolein, second value of 'respectively' (taken as with saliva), time not given) it was 66.4%; in the data set with lymphocytes [4] (setting [5]) it was 63.3%. In the data set with lymphocytes [4] (lymphocytes in PBS, 80 minutes, 80 μM acrolein, 20 μM crotonaldehyde or 2 mM acetaldehyde), the death rates was found to be 57.3%. The “OPO activity … of aldehydes” value in the data set on oral peroxidase (OPO) [1] is listed as “unaffected”.
As to `O=C1O[C@H]([C@@H](O)CO)C(O)=C1O` [ascorbate], the lymphocyte survival rate in the data set with lymphocytes [4] (ascorbate (1 mM) added to PBS containing FeCl3 (90 μM), no saliva, 20 min (FIG. 23 column 8)) amounted to 77%; in the data set on lymphocytes [4] (ascorbate (1 mM) added to saliva-containing medium without exposure to TS, 20 min (FIG. 23 column 6)), 78%.
As to `C/C=C/C=O` [crotonaldehyde], the death rates in the data set on lymphocytes [4] (both, human) worked out at 75.3%. For the same molecule, the survival rates with lymphocytes [4] (setting [5]) is recorded as 80.3%. Also, the “OPO activity … of aldehydes” value in the data set on oral peroxidase (OPO) [1] is listed as “unaffected”.
As for `Nc1ccc(S(=O)(=O)c2ccc(N)cc2)cc1` [dapsone, 4-aminophenylsulfone], the “loss of OPO activity in the presence or absence of the agent” value in the data set on oral peroxidase (OPO) [2] (TS-treated saliva containing ~40% MPO, 150 μM dapsone) is “similar”. The “Loss of OPO activity” value with oral peroxidase (OPO) [2] (TS-treated saliva in the presence of 150 μM dapsone) is given as 60-85%. Besides, the “control MPO activity” value on MPO is reported as “unaffected”.
In turn, `CC(=O)N(O)CCCCCNC(=O)CCC(=O)N(O)CCCCCNC(=O)CCC(=O)N(O)CCCCCN` [deferoxamine] returned a lymphocyte survival rate in the data set on lymphocytes [4] (TS and saliva treatment, 80 minutes, 1 mM agent) of 23.7%.
On to `O=c1[nH]c(=O)c2[nH]c(=O)[nH]c2[nH]1` [uric acid], for which the “lymphocyte protein carbonylation levels” value in the data set on lymphocytes [3] (uric acid added to suspension medium instead of saliva (10 or 100 μM, FIG. 18), no TS) was “reduced carbonylation levels”.
